Results from patent publication US7598377B2, “Inhibition of phosphoinositide 3-kinase β” (AstraZeneca AB, priority 2002, dated 2009).

Legend:
Format in all cases: biochemical
[1] = tested on: PI 3-kinase immunoprecipitated from human platelets (p85/110 form); experiment: In vitro PI 3-kinase assay (Example 8), Platelet IP (p85); details: read-out: Platelet IP (p85) IC50s
Procedure: The effect of pyridine-substituted compounds on PI 3-kinase activity was determined using an in vitro PI 3-kinase assay. This assay was performed using PI 3-kinase immunoprecipitated from human platelets as the enzyme and PI as the substrate. The PI 3-kinase activity was quantitated by measuring the enzymatic incorporation of [^32P] into PI, forming PI([^32P]-3)P, as previously described (Susa et al., 1992, The Journal of Biological Chemistry 267(32):22951-22956.
Washed human platelets were lysed in Triton X-100 lysis buffer (10 mM Tris, pH 7.4, 1% Triton X-100, 2 mM EDTA, 1 mM PMSF) for 30 minutes. The Triton X-100 insoluble fraction was removed by centrifugation of the cell lysates at 15,000 g for 10 minutes. PI 3-kinase was immunoprecipitated by mixing 500 μg of the cell lysate with 1 μg of a rabbit anti-rat antibody against the p85/110 form of PI 3-kinase and 30 μl of 50% Protein A-sepharose beads for 2 hours at 4° C. The Protein A-sepharose-bound PI 3-kinase was isolated by pelleting the beads at 15,000 g for 5 seconds, and washing three times with ice-cold Triton X-100 lysis buffer followed by four washes with PI 3-kinase assay buffer (20 mM HEPES, pH 7.4, 1 mM EGTA, 5 mM MgCl2).
PI stored in CHCl3 was dried under N2, resuspended in the lipid buffer (50 mM HEPES, pH 7.2, 1 mM EDTA) at a final concentration of 330 μg/ml, and sonicated for 6 minutes on ice. PI([^32P]-3)P was generated by mixing the immunoprecipitated PI 3-kinase for 20 minutes with 40 μl of the PI, 10 μl of ATP (1 mM) and ^32P-r-ATP (0.5 μCi, 1 μCi/nmol), 10 μl of 10× kinase buffer, in a final assay volume of 100 μl adjusted with H2O. TGX-was preincubated with the PI 3-kinase for 5 minutes prior to the addition of ATP. The assay was terminated with 100 μl of 1 N HCl, and the PI([^32P]-3)P product extracted with 200 μl chloroform:methanol (1:1) and 500 μl 2 M KCl. The PI([^32P]-3)P in the chloroform phase was resolved by thin layer chromatography using a solvent system containing CHCl3:MeOH:HAC:H2O (43:38:5:7) (v:v:v:v), and visualized by autoradiography. The PI([^32P]-3)P spots were then scraped off from the TLC plates, deacylated with 1 ml methylamine:butanol:methanol (42:9:47) (v:v:v) for 4 hours at 53° C., and quantitated using a liquid scintillation counter (LKB 1209 RackBETA).

P110 δ = molecular target: T1, P110 δ (Homo sapiens, UniProt O00329); experiment: Isoform selective in vitro PI3K enzyme assay (Example 13), δ from THP-1 cells; details: read-out: P110 δ IC50s
T1 construct: The δ isoform was immunoprecipitated from THP-1 cells; endogenous in cells; host or cells: THP-1 cells (immunoprecipitated with antibody sc-7176)
T1 sequence (O00329 whole entry, canonical isoform): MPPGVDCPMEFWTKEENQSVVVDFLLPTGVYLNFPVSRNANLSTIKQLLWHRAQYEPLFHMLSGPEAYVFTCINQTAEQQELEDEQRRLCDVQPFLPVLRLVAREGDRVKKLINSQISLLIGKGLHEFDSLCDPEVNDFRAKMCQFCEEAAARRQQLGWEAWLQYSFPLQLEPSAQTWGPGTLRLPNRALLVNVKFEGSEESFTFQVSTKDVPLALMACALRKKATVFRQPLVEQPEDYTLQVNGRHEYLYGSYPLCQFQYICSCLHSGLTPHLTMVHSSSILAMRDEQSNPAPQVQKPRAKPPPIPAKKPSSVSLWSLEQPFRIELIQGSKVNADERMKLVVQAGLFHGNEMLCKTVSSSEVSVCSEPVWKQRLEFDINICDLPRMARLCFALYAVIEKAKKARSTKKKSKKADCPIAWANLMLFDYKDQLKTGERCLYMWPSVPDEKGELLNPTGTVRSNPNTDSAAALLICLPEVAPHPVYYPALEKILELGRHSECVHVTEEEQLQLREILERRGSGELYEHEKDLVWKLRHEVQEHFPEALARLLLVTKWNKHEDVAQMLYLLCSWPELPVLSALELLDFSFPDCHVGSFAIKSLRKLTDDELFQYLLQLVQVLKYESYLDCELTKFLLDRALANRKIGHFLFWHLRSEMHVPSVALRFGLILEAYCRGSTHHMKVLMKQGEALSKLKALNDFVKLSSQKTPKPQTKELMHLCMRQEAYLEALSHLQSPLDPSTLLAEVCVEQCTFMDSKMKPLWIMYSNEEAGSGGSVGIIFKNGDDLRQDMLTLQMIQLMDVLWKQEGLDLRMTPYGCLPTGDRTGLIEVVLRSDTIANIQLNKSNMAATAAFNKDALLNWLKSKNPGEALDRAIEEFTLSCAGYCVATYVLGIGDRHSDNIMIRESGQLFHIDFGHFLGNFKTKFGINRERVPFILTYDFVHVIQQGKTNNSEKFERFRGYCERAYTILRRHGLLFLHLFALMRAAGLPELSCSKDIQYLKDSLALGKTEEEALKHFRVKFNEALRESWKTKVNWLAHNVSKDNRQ
T1 sequence (P27986 whole entry partner, canonical isoform): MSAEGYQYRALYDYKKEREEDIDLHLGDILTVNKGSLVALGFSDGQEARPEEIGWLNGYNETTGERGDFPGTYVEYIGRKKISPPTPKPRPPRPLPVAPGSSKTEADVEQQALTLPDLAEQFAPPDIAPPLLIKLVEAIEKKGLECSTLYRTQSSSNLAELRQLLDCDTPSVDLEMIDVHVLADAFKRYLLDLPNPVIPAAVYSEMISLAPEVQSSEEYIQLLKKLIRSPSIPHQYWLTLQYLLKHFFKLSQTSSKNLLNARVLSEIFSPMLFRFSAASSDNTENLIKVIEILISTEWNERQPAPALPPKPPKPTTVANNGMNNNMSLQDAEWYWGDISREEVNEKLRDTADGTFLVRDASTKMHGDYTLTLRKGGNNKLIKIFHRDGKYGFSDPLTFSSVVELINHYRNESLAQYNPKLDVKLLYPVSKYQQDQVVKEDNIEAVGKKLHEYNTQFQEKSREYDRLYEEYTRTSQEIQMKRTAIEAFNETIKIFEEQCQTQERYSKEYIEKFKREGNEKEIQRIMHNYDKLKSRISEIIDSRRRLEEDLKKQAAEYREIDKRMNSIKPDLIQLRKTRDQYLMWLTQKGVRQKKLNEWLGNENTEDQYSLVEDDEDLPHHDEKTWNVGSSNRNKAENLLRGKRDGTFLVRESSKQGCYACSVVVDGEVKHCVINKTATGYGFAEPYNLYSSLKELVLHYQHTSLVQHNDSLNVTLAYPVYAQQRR
Procedure: In vitro enzyme assays were conducted as a primary screen to determine drug candidate isoform affinity and specificity. […] The γ isoform was produced as a recombinant protein in the Kinacia laboratories. […] Standard phosphorylation assays using phosphatidylinositol and ^32P were used to measure the enzyme activity in the immunoprecipates in the presence or absence of an inhibitor. Enzyme activity was determined over a range of inhibitor concentrations to establish an IC50 value.

P110 γ = molecular target: T2, P110 γ (Homo sapiens, UniProt P48736); experiment: Isoform selective in vitro PI3K enzyme assay (Example 13), γ recombinant; details: read-out: P110 γ IC50s
T2 construct: made in house
T2 sequence (P48736 whole entry, species assumed, canonical isoform): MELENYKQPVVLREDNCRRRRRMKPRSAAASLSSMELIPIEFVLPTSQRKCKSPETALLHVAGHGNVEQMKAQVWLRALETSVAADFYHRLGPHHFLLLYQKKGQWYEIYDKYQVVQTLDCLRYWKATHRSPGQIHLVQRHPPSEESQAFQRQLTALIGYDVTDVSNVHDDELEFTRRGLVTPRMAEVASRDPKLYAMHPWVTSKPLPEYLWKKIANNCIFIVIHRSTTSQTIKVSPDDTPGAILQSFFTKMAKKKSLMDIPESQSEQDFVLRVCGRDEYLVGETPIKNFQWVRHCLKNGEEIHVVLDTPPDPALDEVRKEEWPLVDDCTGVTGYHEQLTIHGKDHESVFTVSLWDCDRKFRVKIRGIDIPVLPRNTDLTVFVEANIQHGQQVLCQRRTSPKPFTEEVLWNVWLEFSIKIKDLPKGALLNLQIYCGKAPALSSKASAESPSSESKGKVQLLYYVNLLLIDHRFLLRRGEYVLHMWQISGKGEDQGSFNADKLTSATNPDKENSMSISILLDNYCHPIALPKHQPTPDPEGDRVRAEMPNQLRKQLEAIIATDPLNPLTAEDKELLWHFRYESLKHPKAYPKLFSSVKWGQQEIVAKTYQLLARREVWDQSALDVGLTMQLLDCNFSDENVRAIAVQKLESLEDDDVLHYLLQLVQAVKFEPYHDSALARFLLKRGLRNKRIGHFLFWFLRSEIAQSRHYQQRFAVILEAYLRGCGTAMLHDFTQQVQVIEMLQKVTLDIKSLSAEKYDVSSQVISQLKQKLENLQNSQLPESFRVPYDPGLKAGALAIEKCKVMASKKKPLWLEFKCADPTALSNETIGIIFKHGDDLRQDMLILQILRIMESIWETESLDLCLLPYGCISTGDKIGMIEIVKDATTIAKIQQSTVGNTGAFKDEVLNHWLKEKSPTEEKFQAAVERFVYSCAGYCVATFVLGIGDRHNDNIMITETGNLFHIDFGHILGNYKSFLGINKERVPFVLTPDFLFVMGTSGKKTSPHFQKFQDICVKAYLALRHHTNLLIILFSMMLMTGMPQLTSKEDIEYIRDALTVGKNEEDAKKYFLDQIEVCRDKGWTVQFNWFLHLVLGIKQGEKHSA
Procedure: In vitro enzyme assays were conducted as a primary screen to determine drug candidate isoform affinity and specificity. The α and β isoforms of the PI3K were immunoprecipitated from a platelet lysate, using an antibodies obtained from Santa Cruz Biotechnology, that recognized specific regions of p110α (sc-7174) and β (sc-603) isoforms. The γ isoform was produced as a recombinant protein in the Kinacia laboratories. […] Standard phosphorylation assays using phosphatidylinositol and ^32P were used to measure the enzyme activity in the immunoprecipates in the presence or absence of an inhibitor. Enzyme activity was determined over a range of inhibitor concentrations to establish an IC50 value.

Q: Which IC50 [1] does the source give for O=c1cc(-c2ccncc2)oc2c(OCc3ccccc3)cccc12 [KN335, 8-Benzyloxy-2-(4-pyridinyl)-4H-benzopyran-1-one] here?
A: The IC50 was 1000 nM.

Q: What about the IC50 (P110 δ) of the same compound?
A: Its IC50 is 1000 nM.

Q: What does the source list for O=c1cc(-c2ccncc2)oc2cc(OCc3ccccc3)ccc12 [KN342, 7-Benzyloxy-2-(4-pyridinyl)-4H-benzopyran-1-one]?
A: IC50 (P110 γ): > 10000 nM; IC50 (P110 δ): > 10000 nM

Q: For Cc1cc(C(C)n2c(C(F)(F)F)nc3ccccc32)c2oc(-c3ccncc3)cc(=O)c2c1 (stereo not drawn) [KN328, 6-methyl-8-1-(2-trifluoromethyl-benzimidazol-1-yl)-ethyl-2-(4-pyridinyl)-4H-benzopyran-1-one], which IC50 [1] is on record?
A: The IC50 was 50 nM.

Q: O=c1cc(-c2ccncc2)oc2c(Nc3cccc(F)c3)cccc12 [KN351, 8-(3-Fluorophenylamino)-2-(4-pyridinyl)-4H-benzopyran-1-one] was tested. Which IC50 [1] did it give?
A: The IC50 was 500 nM.

Q: How did the IC50 [1] turn out when O=c1cc(-c2ccncc2)oc2c(Nc3ccccc3)cccc12 [KN341] was run?
A: The IC50 was 500 nM.

Q: And the IC50 (P110 γ)?
A: The IC50 was 5000 nM.

Q: What about the IC50 (P110 δ) of the same compound?
A: The IC50 was 50 nM.

Q: For Cc1cc(COc2ccccc2)c2oc(-c3ccncc3)cc(=O)c2c1 [KN313, 6-methyl-8-phenoxymethyl-2-(4-pyridinyl)-4H-benzopyran-1-one], which IC50 [1] is on record?
A: Its IC50 is 100 nM.

Q: What about the IC50 (P110 δ) of the same compound?
A: Its IC50 is 5000 nM.

Q: How did the IC50 [1] turn out when Cc1cc(C(C)Nc2cccc(C(F)(F)F)c2)c2oc(-c3ccncc3)cc(=O)c2c1 (stereo not drawn) [KN322, 8-1-(3-trifluoromethylphenylamino)ethyl-6-methyl-2-(4-pyridinyl)-4H-1-benzopyran-4-one] was run?
A: The IC50 was 1000 nM.

Q: And the IC50 (P110 δ)?
A: Its IC50 is 1000 nM.

Q: O=c1cc(-c2ccncc2)nc2c(Cc3ccccc3)cccn12 [KN349, 9-Benzyl-2-(4-pyridinyl)-4H-Pyrido[1,2-a]pyrimidin-4-one] was tested. Which IC50 [1] did it give?
A: Its IC50 is 500 nM.

Q: What about the IC50 (P110 γ) of the same compound?
A: Its IC50 is > 10000 nM.

Q: And the IC50 (P110 δ)?
A: The IC50 was 2000 nM.

Q: “6-methyl-8-(2-acetamido)phenylaminomethyl-2-(4-pyridinyl)-4H-benzopyran-1-one [KN326]” was tested. Which IC50 [1] did it give?
A: The IC50 was 500 nM.

Q: And the IC50 (P110 γ)?
A: Its IC50 is 5000 nM.

Q: What about the IC50 (P110 δ) of the same compound?
A: Its IC50 is 1000 nM.

Q: For Cc1cc(C(C)Oc2ccccc2)c2oc(-c3ccncc3)cc(=O)c2c1 (stereo not drawn) [KN317, 6-methyl-8-1-(phenoxy)ethyl-2-(4-pyridinyl)-4H-benzopyran-1-one], which IC50 [1] is on record?
A: The IC50 was > 100 nM.

Q: What about the IC50 (P110 δ) of the same compound?
A: Its IC50 is 5000 nM.

Q: Which IC50 [1] does the source give for Cc1cc(CNc2ccccc2)c2oc(-c3ccncc3)cc(=O)c2c1 [KN312, 6-methyl-8-phenylaminomethyl-2-(4-pyridinyl)-4H-benzopyran-1-one] here?
A: Its IC50 is 50 nM.

Q: How did the IC50 [1] turn out when O=c1cc(-c2ccncc2)[nH]c2c(Oc3ccccc3)cccc12 [KN319, 8-phenoxy-2-(4-pyridinyl)-4-(1H)-quinolinone] was run?
A: The IC50 was 500 nM.

Q: And the IC50 (P110 γ)?
A: The IC50 was 20000 nM.

Q: What about the IC50 (P110 δ) of the same compound?
A: The IC50 was 300 nM.

Q: Which results are given for Cc1cccn2c(=O)cc(-c3ccncc3)nc12 [KN347, 9-methyl-2-(4-pyridinyl)-4H-Pyrido[1,2-a]pyrimidin-4-one]?
A: IC50 [1]: > 10000 nM; IC50 (P110 γ): > 10000 nM; IC50 (P110 δ): > 10000 nM

Q: How did the IC50 [1] turn out when O=c1cc(-c2ccncc2)[nH]c2c(Cc3ccccc3)cccc12 [KN346, 8-Benzyl-2-(4-pyridinyl)-4(1H)-quinolinone] was run?
A: Its IC50 is > 10000 nM.

Q: What about the IC50 (P110 γ) of the same compound?
A: Its IC50 is > 10000 nM.

Q: What about the IC50 (P110 δ) of the same compound?
A: The IC50 was 10000 nM.

Q: For Cc1cc(F)ccc1Oc1cccc2c(=O)cc(-c3ccncc3)[nH]c12 [KN337, 8-(4-Fluoro-2-methylphenoxy)-2-(4-pyridinyl)-4(1H)-quinolinone], which IC50 [1] is on record?
A: The IC50 was 200 nM.

Q: What about the IC50 (P110 γ) of the same compound?
A: Its IC50 is > 10000 nM.

Q: What about the IC50 (P110 δ) of the same compound?
A: Its IC50 is 200 nM.

Q: “8-Naphthyl-2-(4-pyridinyl)-4(1H)-quinolinone [KN350]” was tested. Which IC50 [1] did it give?
A: The IC50 was 500 nM.

Q: What does the source list for O=c1cc(-c2ccncc2)oc2c(NCc3ccccc3)cccc12 [KN336]?
A: IC50 [1]: 1000 nM; IC50 (P110 γ): 10000 nM; IC50 (P110 δ): 200 nM

Q: Which results are given for Cc1cc(-c2ccccc2)c2oc(-c3ccncc3)cc(=O)c2c1 [TGX258, 8-Phenyl-6-methyl-2-(4-pyridinyl)-4H-benzopyran-1-one]?
A: IC50 (P110 γ): > 20000 nM; IC50 (P110 δ): > 10000 nM

Q: What does the source list for Cc1cc(C(C)Nc2ccccc2)c2oc(-c3cc(C)nc(Cl)c3)cc(=O)c2c1 (stereo not drawn) [KN340, 8-1-(phenylamino)ethyl-6-methyl-2-(2-chloro-6-methyl-4-pyridinyl)-4H-1-benzopyran-4-one]?
A: IC50 (P110 γ): > 10000 nM; IC50 (P110 δ): > 10000 nM

Q: For O=c1cc(-c2ccncc2)[nH]c2c(-c3ccccc3)cccc12 [KN345, 8-phenyl-2-(4-pyridinyl)-4(1H)-quinoline], which IC50 [1] is on record?
A: Its IC50 is 5000 nM.

Q: What about the IC50 (P110 γ) of the same compound?
A: The IC50 was > 10000 nM.

Q: What does the source list for Cc1cc(C(C)Nc2ccc(F)cc2C)c2oc(-c3ccncc3)cc(=O)c2c1 (stereo not drawn) [KN303, 8-1-(4-fluoro-2-methylphenylamino)ethyl-6-methyl-2-(4-pyridinyl)-4H-1-benzopyran-4-one]?
A: IC50 [1]: 10 nM; IC50 (P110 γ): 1500 nM; IC50 (P110 δ): 500 nM

Q: Which results are given for COc1cccc2c(=O)cc(-c3ccncc3)[nH]c12 [KN344, 8-methoxy-2-(4-pyridinyl)-4(1H)-quinolinone]?
A: IC50 [1]: 5000 nM; IC50 (P110 γ): > 10000 nM

Q: How did the IC50 [1] turn out when Cc1cc(CNc2ccccn2)c2oc(-c3ccncc3)cc(=O)c2c1 [KN315, 6-methyl-8-(2-pyridinyl)aminomethyl-2-(4-pyridinyl)-4H-benzopyran-1-one] was run?
A: The IC50 was > 100 nM.

Q: And the IC50 (P110 γ)?
A: The IC50 was 5000 nM.

Q: And the IC50 (P110 δ)?
A: Its IC50 is 5000 nM.

Q: O=c1cc(-c2ccncc2)nc2c(NCCc3ccccc3)cccn12 [KN316, 9-(2-phenethyl)amino-2-(4-pyridinyl)-4H-Pyrido[1,2-a]pyrimidin-4-one] was tested. Which IC50 [1] did it give?
A: The IC50 was 1000 nM.

Q: What about the IC50 (P110 δ) of the same compound?
A: The IC50 was 1000 nM.

Q: With Cc1cc(C(C)Nc2cccc(C)n2)c2oc(-c3ccncc3)cc(=O)c2c1 (stereo not drawn) [KN310, 8-1-(6-methylpyridin-2-ylamino)ethyl-6-methyl-2-(4-pyridinyl)-4H-1-benzopyran-4-one] as the compound, how does the IC50 [1] read?
A: Its IC50 is 100 nM.

Q: What about the IC50 (P110 γ) of the same compound?
A: The IC50 was 7500 nM.

Q: What about the IC50 (P110 δ) of the same compound?
A: The IC50 was 1000 nM.
